± gives the expanded uncertainty stated by the source.
Assays:
[1] = 101 kPa, Liquid; for speed of sound: Frequency=2.75 MHz, Pulse-echo method; for mass density: Vibrating tube method
[2] = refractive index (Na D-line) (dimensionless); conditions: 298.15 K; 101.33 kPa; Liquid; Standard Abbe refractometry
[3] = xn = mol fraction of the nth substance listed; conditions: 101 kPa, Liquid, x2 = 0; for speed of sound: Frequency=2.75 MHz, Pulse-echo method; for mass density: Vibrating tube method

SMILES | speed of sound ([1]; 293.15 K) [m/s] | mass density ([1]; 293.15 K) [kg/m3] | speed of sound ([1]; 298.15 K) [m/s] | mass density ([1]; 298.15 K) [kg/m3] | speed of sound ([1]; 303.15 K) [m/s] | mass density ([1]; 303.15 K) [kg/m3] | speed of sound ([1]; 308.15 K) [m/s] | mass density ([1]; 308.15 K) [kg/m3] | speed of sound ([1]; 313.15 K) [m/s] | mass density ([1]; 313.15 K) [kg/m3] | refractive index [2] | speed of sound ([3]; 293.15 K) [m/s] | mass density ([3]; 293.15 K) [kg/m3] | speed of sound ([3]; 298.15 K) [m/s] | mass density ([3]; 298.15 K) [kg/m3] | speed of sound ([3]; 303.15 K) [m/s] | mass density ([3]; 303.15 K) [kg/m3] | speed of sound ([3]; 308.15 K) [m/s] | mass density ([3]; 308.15 K) [kg/m3] | other results
CCCC[n+]1ccn(C)c1.O=S(=O)([N-]S(=O)(=O)C(F)(F)F)C(F)(F)F | 1237.9 ± 1.5 | 1439.23 ± 0.61 | 1226.7 ± 1.5 | 1434.44 ± 0.61 | 1215.6 ± 1.5 | 1429.65 ± 0.6 | 1204.6 ± 1.5 | 1424.88 ± 0.6 | 1193.7 ± 1.5 | 1420.12 ± 0.59 | 1.4265 ± 0.0008 | – | – | – | – | – | – | – | – | –
C1CCOC1 [tetrahydrofuran] | 1301.9 ± 1.2 | 887.52 ± 0.12 | 1277.5 ± 1.2 | 882.06 ± 0.13 | 1253.2 ± 1.2 | 876.57 ± 0.13 | 1229 ± 1.2 | 871.04 ± 0.13 | – | – | 1.4052 ± 0.0008 | – | – | – | – | – | – | – | – | –
CC#N [acetonitrile] | 1298.2 ± 1.2 | 782 ± 0.15 | 1277.7 ± 1.2 | 776.6 ± 0.15 | 1257.2 ± 1.2 | 771.18 ± 0.15 | 1236.9 ± 1.2 | 765.72 ± 0.15 | 1216.6 ± 1.2 | 760.24 ± 0.16 | 1.3416 ± 0.0008 | – | – | – | – | – | – | – | – | –
CC#N [acetonitrile] + CCCC[n+]1ccn(C)c1.O=S(=O)([N-]S(=O)(=O)C(F)(F)F)C(F)(F)F | – | – | – | – | – | – | – | – | – | – | – | 1298.2 ± 1.2 | 782 ± 0.15 | 1277.7 ± 1.2 | 776.6 ± 0.15 | 1257.2 ± 1.2 | 771.18 ± 0.15 | 1236.9 ± 1.2 | 765.72 ± 0.15 | speed of sound ([3]; 313.15 K): 1216.6 ± 1.2 m/s; mass density ([3]; 313.15 K): 760.24 ± 0.16 kg/m3
C1CCOC1 [tetrahydrofuran] + CCCC[n+]1ccn(C)c1.O=S(=O)([N-]S(=O)(=O)C(F)(F)F)C(F)(F)F | – | – | – | – | – | – | – | – | – | – | – | 1301.9 ± 1.2 | 887.52 ± 0.12 | 1277.5 ± 1.2 | 882.06 ± 0.13 | 1253.2 ± 1.2 | 876.57 ± 0.13 | 1229 ± 1.2 | 871.04 ± 0.13 | –
